Results taken from US8431593B2, “Heteroaryl amide derivatives” (H. Lundbeck A/S, priority 2006, dated 2013).

Target: T1, P2X7 receptor (Homo sapiens, UniProt Q99572)
T1 construct: host or cells: SH-SY5Y
T1 sequence (Q99572 1-595): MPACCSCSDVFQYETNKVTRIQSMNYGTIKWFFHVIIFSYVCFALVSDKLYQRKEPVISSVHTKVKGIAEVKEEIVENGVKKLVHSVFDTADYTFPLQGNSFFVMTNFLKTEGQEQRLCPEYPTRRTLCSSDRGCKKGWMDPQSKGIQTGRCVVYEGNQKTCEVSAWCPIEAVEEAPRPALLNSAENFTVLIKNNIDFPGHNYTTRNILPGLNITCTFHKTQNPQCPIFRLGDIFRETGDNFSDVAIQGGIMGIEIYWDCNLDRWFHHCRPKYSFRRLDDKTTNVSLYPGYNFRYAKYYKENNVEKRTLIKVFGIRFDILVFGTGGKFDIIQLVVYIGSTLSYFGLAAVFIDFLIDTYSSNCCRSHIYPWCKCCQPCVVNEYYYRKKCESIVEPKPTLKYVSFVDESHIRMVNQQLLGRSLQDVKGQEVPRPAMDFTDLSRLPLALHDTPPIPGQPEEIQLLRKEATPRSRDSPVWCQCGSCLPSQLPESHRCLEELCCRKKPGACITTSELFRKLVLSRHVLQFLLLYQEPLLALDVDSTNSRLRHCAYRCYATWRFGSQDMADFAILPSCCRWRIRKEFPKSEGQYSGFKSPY
Assay: P2X7 calcium mobilization assay, high throughput, antagonist activity (Example 4A)
Type: cell-based
Conditions: not given
How it was run: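 Cells plated at 100,000/well the day before were dye-loaded for 1 h, then incubated 1 h at room temperature with test compound before agonist-triggered calcium mobilization was read on FLIPR Tetra. Maximum RFU was corrected by subtracting the no-agonist control and related to the agonist-control response.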

| Structure (SMILES) | IC50 [µM] |
| --- | --- |
| O=C(NCC12CC3CC(CC(C3)C1)C2)c1cccc2nc(CC(=O)N3CCC4(CC3)OCCO4)cn12 [Compound 187, N-(adamantan-1-ylmethyl)-2-[2-(1,4-dioxa-8-azaspiro[4.5]dec-8-yl)-2-oxoethyl]imidazo[1,2-a]pyridine-5-carboxamide] | < 2 |

Same assay, conditions: 50% decrease in the fluorescence response of cells exposed to 80 μM 2′(3′)-O-(4-benzoyl-benzoyl)adenosine 5′-triphosphate; Example 4A; read-out: IC50

| Structure (SMILES) | IC50 [µM] |
| --- | --- |
| COCCN(C(=O)c1cn2c(C(=O)NC[C@@H]3CC[C@H]4C[C@@H]3C4(C)C)cccc2n1)C(C)C [Compound 483, 5-N-{[(1S,2R,5S)-6,6-dimethylbicyclo[3.1.1]hept-2-yl]methyl}-2-N-isopropyl-2-N-(2-methoxyethyl)imidazo [1,2-a]pyridine-2,5-dicarboxamide] | < 2 |
| O=C(CC12CC3CC(CC(C3)C1)C2)Nc1cccc2nc(C(=O)N3CCCC(O)C3)cn12 (centres unmarked) [Compound 418, 2-adamantan-1-yl-N-{2-[(3-hydroxypiperidin-1-yl)carbonyl]imidazo [1,2-a]pyridin-5-yl}acetamide] | < 2 |
| CC1(C)[C@H]2CC[C@@H](CNC(=O)c3cccc4nc(C(=O)NCC5CC5)cn34)[C@@H]1C2 [Compound 497, 2-N-(cyclopropylmethyl)-5-N-{[(1S,2R,5S)-6,6-dimethylbicyclo[3.1.1]hept-2-yl]methyl}imidazo[1,2-a]pyridine-2,5-dicarboxamide] | < 2 |

Same assay, conditions: 50% decrease in the fluorescence response of cells exposed to 80 μM of 2′(3′)-O-(4-benzoyl-benzoyl)adenosine 5′-triphosphate; Example 4A; read-out: IC50

| Structure (SMILES) | IC50 [µM] |
| --- | --- |
| CC(C)N(CCCO)C(=O)c1cn2c(C(=O)NCC34CC5CC(CC(C5)C3)C4)cccc2n1 [Compound 695, 5-N-(adamantan-1-ylmethyl)-2-N-(3-hydroxypropyl)-2-N-isopropylimidazol[1,2-a]pyridine-2,5-dicarboxamide] | < 2 |
| NCC1CN(C(=O)c2cn3c(C(=O)NCC45CC6CC(CC(C6)C4)C5)cccc3n2)C1 [Compound 634, N-(adamantan-1-ylmethyl)-2-{[3-(aminomethyl)azetidin-1-yl]carbonyl}imidazo[1,2-a]pyridine-5-carboxamide] | < 2 |
| O=C(N[C@@H]1CN2CCC1CC2)c1cn2c(C(=O)NCC34CC5CC(CC(C5)C3)C4)cccc2n1 [Compound 662, 5-N-(adamantan-1-ylmethyl)-2-N-[(3S)-1-azabicyclo[2.2.2]oct-3-yl]imidazo[1,2-a]pyridine-2,5-dicarboxamide] | < 2 |
| CC(C)CC(CNC(=O)c1cccc2nc(CC(=O)N3CCCC(N(C)C)C3)cn12)c1ccc(Cl)cc1 (centres unmarked) [Compound 792, N-[2-(4-chlorophenyl)-4-methylpentyl]-2-{2-[3-(dimethylamino)piperidin-1-yl]-2-oxoethyl} imidazo[1,2-a] pyridine-5-carboxamide] | < 2 |
| O=C(O)c1nnnn1Cc1cn2c(C(=O)NCC34CC5CC(CC(C5)C3)C4)cccc2n1 [Compound 737, 1-({5-[(adamantan-1-ylmethyl)carbamoyl]imidazo[1,2-a]pyridin-2-yl}methyl)-1H-tetrazole-5-carboxylic acid] | < 2 |
| CN(C)CC(C)(C)CNC(=O)c1cn2c(C(=O)NCC34CC5CC(CC(C5)C3)C4)cccc2n1 [Compound 644, 5-N-(adamantan-1-ylmethyl)-2-N-[3-(dimethylamino)-2,2-dimethylpropyl] imidazo[1,2-a] pyridine-2,5-dicarboxamide] | < 2 |
| CC(C)CC(CNC(=O)c1cccc2nc(CN3CC[C@@H](N)C3)cn12)c1ccc(Cl)cc1 (some centres unmarked) [Compound 762, 2-[(3-aminopyrrolidin-1-yl)methyl]-N-[2-(4-chlorophenyl)-4-methylpentyl] imidazo [1,2-a]pyridine-5-carboxamide] | < 2 |

Same assay, conditions: 50% decrease in the fluorescence response of cells exposed to 80 μM of 2′(3′)-O-(4-benzoyl-benzoyl)adenosine 5′-triphosphate; determined as in Example 4A; read-out: IC50

| Structure (SMILES) | IC50 [µM] |
| --- | --- |
| CC1(C)C2CC[C@@H](CNC(=O)c3cccc4nc(C(F)(F)F)cn34)C1C2 (stereo partly drawn) [Compound 1016, N-{[(2R)-6,6-dimethylbicyclo [3.1.1]hept-2-yl]methyl}-2-(trifluoromethyl) imidazo [1,2-a]pyridine-5-carboxamide] | < 2 |
| COC1CCN(C(=O)Cc2cn3c(C(=O)NCC4(c5cccnc5)CCCCC4)cccc3n2)CC1 [Compound 897, 2-[2-(4-methoxypiperidin-1-yl)-2-oxoethyl]-N-[(1-pyridin-3-ylcyclohexyl)methyl] imidazo[1,2-a] pyridine-5-carboxamide] | < 2 |
| CCCC(CNC(=O)c1cccc2nc(CC(=O)N[C@@H]3CCCN(C(=O)OC(C)(C)C)C3)cn12)c1ccc(Cl)cc1 (stereo partly drawn) [Compound 924, tert-butyl (3R)-3-{[(5-{[2-(4-chlorophenyl)pentyl]carbamoyl}imidazo [1,2-a]pyridin-2-yl)acetyl]amino} piperidine-1-carboxylate] | < 2 |
| CC(C)CC(CNC(=O)c1cccc2nc(CC(=O)N3CCC[C@@H](N)C3)cn12)c1cccnc1 (stereo partly drawn) [Compound 946, 2-{2-[(3R)-3-aminopiperidin-1-yl]-2-oxoethyl}-N-(4-methyl-2-pyridin-3-ylpentyl) imidazo[1,2-a]pyridine-5-carboxamide] | < 2 |
| O=C(O)Cc1cn2c(C(=O)NCC3(c4ccc(C(F)(F)F)cc4)CCCCC3)cccc2n1 [Compound 963, {5-[({1-[4-(trifluoromethyl)phenyl]cyclohexyl}methyl)carbamoyl]imidazo[1,2-a]pyridin-2-yl}acetic acid] | < 2 |

Same assay, conditions: SH-SY5Y cells; 50% decrease in fluorescence response to 80 μM BzATP; read-out: IC50

| Structure (SMILES) | IC50 [µM] |
| --- | --- |
| CC1(C)CCCN(C(=O)Cc2cn3c(C(=O)NCC45CC6CC(CC(C6)C4)C5)cccc3n2)C1 [Compound 185, N-(adamantan-1-ylmethyl)-2-[2-(3,3-dimethylpiperidin-1-yl)-2-oxoethyl]imidazo[1,2-a]pyridine-5-carboxamide] | < 2 |
| O=C(NCC12CC3CC(CC(C3)C1)C2)c1cccc2nc(CC(=O)N3CCNCC3)cn12 [Compound 64, N-(adamantan-1-ylmethyl)-2-(2-oxo-2-piperazin-1-ylethyl)imidazo[1,2-a]pyridine-5-carboxamide] | < 2 |
| Nc1ccnn1Cc1cn2c(C(=O)NCC34CC5CC(CC(C5)C3)C4)cccc2n1 [Compound 209, N-(adamantan-1-ylmethyl)-2-[(5-amino-1H-pyrazol-1-yl)methyl]imidazo[1,2-a]pyridine-5-carboxamide] | < 2 |
| C[C@H]1CN(C(=O)Cc2cn3c(C(=O)NCC45CC6CC(CC(C6)C4)C5)cccc3n2)CCN1 [Compound 140, N-(adamantan-1-ylmethyl)-2-{2-[(3S)-3-methylpiperazin-1-yl]-2-oxoethyl}imidazo[1,2-a]pyridine-5-carboxamide] | < 2 |
| NC(=O)C1CCN(C(=O)c2cn3c(C(=O)NCC45CC6CC(CC(C6)C4)C5)cccc3n2)CC1 [Compound 102, N-(adamantan-1-ylmethyl)-2-[(4-carbamoylpiperidin-1-yl)carbonyl]imidazo[1,2-a]pyridine-5-carboxamide] | < 2 |
| O=C(Cc1cn2c(C(=O)NCC34CC5CC(CC(C5)C3)C4)cccc2n1)NN1CCOCC1 [Compound 162, N-(adamantan-1-ylmethyl)-2-[2-(morpholin-4-ylamino)-2-oxoethyl]imidazo[1,2-a]pyridine-5-carboxamide] | < 2 |
| CC(O)CCNC(=O)c1cn2c(C(=O)NCC34CC5CC(CC(C5)C3)C4)cccc2n1 (centres unmarked) [Compound 84, 5-N-(adamantan-1-ylmethyl)--(3-hydroxy-butyl)imidazo[1,2-a]pyridine-2,5-dicarboxamide] | < 2 |

Same assay, conditions: fluorescence response of cells exposed to 80 μM 2′(3′)-O-(4-benzoyl-benzoyl)adenosine 5′-triphosphate; Example 4A; read-out: IC50

| Structure (SMILES) | IC50 [µM] |
| --- | --- |
| CC1(C)[C@H]2CC[C@@H](CNC(=O)c3cccc4nc(C(=O)NC5CCNC5)cn34)[C@@H]1C2 (stereo partly drawn) [Compound 333, 5-N-{[(1S,2R,5S)-6,6-dimethylbicyclo[3.1.1]hept-2-yl]methyl}-2-N-pyrrolidin-3-ylimidazo[1,2-a]pyridine-2,5-dicarboxamide] | < 2 |
| O=C(CC12CC3CC(CC(C3)C1)C2)Nc1cccc2nc(C(=O)N3CCCCC3)cn12 [Compound 357, 2-adamantan-1-yl-N-[2-(piperidin-1-ylcarbonyl)imidazo [1,2-a]pyridin-5-yl]acetamide] | < 2 |
| N[C@@H]1CCN(Cc2cn3c(C(=O)NCCC45CC6CC(CC(C6)C4)C5)cccc3n2)C1 [Compound 248, N-(2-adamantan-1-ylethyl)-2-{[(3R)-3-aminopyrrolidin-1-yl]methyl}imidazo[1,2-a]pyridine-5-carboxamide] | < 2 |
| O=C(CC12CC3CC(CC(C3)C1)C2)Nc1cccc2nc(C(=O)N3CCCC3)cn12 [Compound 358, 2-adamantan-1-yl-N-[2-(pyrrolidin-1-ylcarbonyl)imidazo [1,2-a]pyridin-5-yl]acetamide] | < 2 |
| CN(CCNS(C)(=O)=O)C(=O)c1cn2c(NC(=O)CC34CC5CC(CC(C5)C3)C4)cccc2n1 [Compound 404, 5-[(adamantan-1-ylacetyl)amino]-N-methyl-N-{2-[(methylsulfonyl)amino]ethyl} imidazo[1,2-a] pyridine-2-carboxamide] | < 2 |
| CC1CCN(C(=O)c2cn3c(NC(=O)CC45CC6CC(CC(C6)C4)C5)cccc3n2)CC1 [Compound 363, 2-adamantan-1-yl-N-{2-[(4-methylpiperidin-1-yl)carbonyl]imidazo[1,2-a]pyridin-5-yl}acetamide] | < 2 |
